Molecular target: VprBP (Homo sapiens, UniProt Q9Y4B6)
Test: in vitro kinase assay with recombinant VprBP and H2A
Type: biochemical

VprBP, sequence (Q9Y4B6 whole entry): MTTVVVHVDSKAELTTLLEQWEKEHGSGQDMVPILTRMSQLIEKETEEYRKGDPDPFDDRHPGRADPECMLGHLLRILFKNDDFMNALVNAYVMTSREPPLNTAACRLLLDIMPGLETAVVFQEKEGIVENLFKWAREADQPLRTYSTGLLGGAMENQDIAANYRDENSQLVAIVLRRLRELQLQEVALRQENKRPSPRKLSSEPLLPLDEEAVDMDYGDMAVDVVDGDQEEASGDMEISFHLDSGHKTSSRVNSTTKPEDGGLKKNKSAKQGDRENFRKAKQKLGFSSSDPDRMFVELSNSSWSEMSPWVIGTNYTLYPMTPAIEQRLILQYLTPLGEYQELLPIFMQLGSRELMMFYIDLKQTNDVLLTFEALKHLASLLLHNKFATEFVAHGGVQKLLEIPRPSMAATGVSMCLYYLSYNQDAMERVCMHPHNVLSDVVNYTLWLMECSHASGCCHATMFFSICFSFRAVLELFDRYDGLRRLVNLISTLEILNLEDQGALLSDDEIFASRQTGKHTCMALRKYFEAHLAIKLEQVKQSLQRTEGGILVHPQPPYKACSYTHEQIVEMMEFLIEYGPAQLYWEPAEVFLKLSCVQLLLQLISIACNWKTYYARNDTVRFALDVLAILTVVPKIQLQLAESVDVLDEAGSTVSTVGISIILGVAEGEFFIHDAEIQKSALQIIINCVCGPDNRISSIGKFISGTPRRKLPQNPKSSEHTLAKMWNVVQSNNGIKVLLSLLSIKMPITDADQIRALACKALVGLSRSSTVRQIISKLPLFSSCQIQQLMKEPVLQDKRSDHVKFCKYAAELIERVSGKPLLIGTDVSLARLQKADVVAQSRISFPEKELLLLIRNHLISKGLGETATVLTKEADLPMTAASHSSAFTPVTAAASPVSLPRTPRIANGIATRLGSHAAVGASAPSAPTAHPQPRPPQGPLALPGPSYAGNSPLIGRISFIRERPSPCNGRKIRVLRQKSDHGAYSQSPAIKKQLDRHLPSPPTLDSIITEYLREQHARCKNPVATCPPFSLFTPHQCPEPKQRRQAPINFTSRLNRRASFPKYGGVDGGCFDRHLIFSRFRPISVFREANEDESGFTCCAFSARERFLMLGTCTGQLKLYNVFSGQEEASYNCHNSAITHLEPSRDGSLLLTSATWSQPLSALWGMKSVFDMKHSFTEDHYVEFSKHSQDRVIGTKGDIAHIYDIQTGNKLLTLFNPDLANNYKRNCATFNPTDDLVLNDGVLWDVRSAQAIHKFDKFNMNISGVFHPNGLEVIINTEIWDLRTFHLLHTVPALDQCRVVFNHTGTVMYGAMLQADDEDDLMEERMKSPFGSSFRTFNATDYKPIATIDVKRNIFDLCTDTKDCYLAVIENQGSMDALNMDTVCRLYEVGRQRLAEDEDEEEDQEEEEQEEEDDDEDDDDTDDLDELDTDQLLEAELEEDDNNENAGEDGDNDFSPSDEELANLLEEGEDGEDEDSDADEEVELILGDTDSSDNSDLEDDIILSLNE

IC50: 600 nM
Substance: B32B3
